Entries after “also recorded” stand apart in the source; their conditions may differ.
Assays:
HSV [1] = assay: Viral migration to the nucleus (HSV antigens by ELISA, ICP-4 by immunofluorescence); format: cell-based
From the text: (§1) The collective implications of the results of the studies are that the compound appears to interfere with one or more of the common pathways of viral entry into the cell and migration to the nucleus of infected target cells.
Thus, the amounts of both HSV core and envelope protein antigens detectable by ELISA, as well as the numbers of infected cells expressing the intranuclear HSV-specific immediate-early protein, ICP-4, by immunofluorescence, are reduced by more than 80%. Finally, the replication of infectious virions as measured in secondary plaque assay cultures is markedly diminished by 99% or more in n-docosanol-treated cells.

[2] = system: recurrent herpes genitalis; assay: Study B: trial in female patients with recurrent herpes genitalis; format: in vivo, human; conditions: all patients
From the text: Two clinical efficacy studies have been completed. Study A was a randomized, double-blind, placebo-controlled Phase 2 study in 63 patients (male and female) with recurrent herpes labialis. All of the 31 n-docosanol 10% cream-treated patients in the herpes labialis study, Study A, completed their treatment; 2 of those 31 patients reported a burning or stinging sensation after application of the cream. […] Study B was a randomized, double-blind, placebo-controlled trial in 44 female patients with recurrent herpes genitalis.
In the first clinical study, sixty female patients with recurrent herpes genitalis entered the study while symptom-free and not in a prodromal stage. […]
Three pain analyses were conducted, based on patients' self-assessment of pain: time to sustained "no pain"; time to first "no pain"; and time to first reduction of pain. Time to sustained "no pain" was measured from the time of first pain at application to the time when 1 ) pain was scored as "no pain" for a minimum of 2 consecutive recordings; and 2) during the remainder of the episode, additional pain recordings were no more frequent and severe than 2 separated episodes of 2 consecutive recordings of "mild" pain. […] Time to first reduction in pain was measured from the time of first pain at application to the first time when a decrease in pain level was noted, relative to the previous assessment. […]

[3] = system: acyclovir-resistant HSV-2; assay: Plaque inhibition, acyclovir-resistant HSV-2 in Vero cells; format: cell-based; conditions: FIG. 7, Panel B
poliovirus = format: cell-based; conditions: nonenveloped virus
HSV-specific receptors = assay: Binding of herpes virus to HSV-specific receptors on target cells; format: cell-based
From the text: as §1

HSV [4] = assay: Secondary plaque assay of infectious virions; format: cell-based; conditions: secondary plaque assay cultures
From the text: Finally, the replication of infectious virions as measured in secondary plaque assay cultures is markedly diminished by 99% or more in n-docosanol-treated cells.

Varicella Zoster Virus = assay: Antiviral activity against varicella zoster virus; format: cell-based; conditions: Table 6, human viruses
Vero cells [5] = assay: Cellular uptake and distribution of radiolabeled n-docosanol in Vero cells
HIV-1 = HIV-1 replication in PHA/IL-2-stimulated human peripheral blood mononuclear cells (p24 ELISA); format: cell-based
Description: Human peripheral blood mononuclear cells were cultured in medium containing 1 μg/ml PHA plus 5 units/ml IL-2 alone or also containing 100 μg/ml PFA, […] F-68 control vehicle contained in the high dose of n-docosanol/Pluronic. After overnight incubation, the cultures were inoculated with HIV-1 at a multiplicity of infection of 1 virion/cell. After 24 hours incubation at 37° C., the cultures were washed and inoculated with fresh medium containing PHA and IL-2, but lacking inhibitor. Replication of HIV-1 was determined 4 days later by quantitation of viral antigens by a p24-specific ELISA for HIV-1.
Our initial studies on HIV were conducted in collaboration with a U.S. National Institutes of Health laboratory and one of several experiments of this type is summarized in FIG. 13. Normal human peripheral blood mononuclear cells were activated with […] PHA plus 5 units/ml of IL-2 in medium alone or in the presence of the n-docosanol, Pluronic F-68 control vehicle, or phosphonoformic acid (PFA). The next day, the cultures were inoculated with HIV-1 and examined 4 days later for evidence of viral replication by detection of the p24 viral antigen. […] The dose response of HIV-1 to n-docosanol indicates an ED 50 of about 6-9 mM.

Vero cells [6] = system: Vero cells
Vero cells [7] = system: Vero cells; remark: listed apart in the source
HSV [8] = assay: Inhibition of HSV-induced plaques in Vero versus MDBK cells; format: cell-based
LP-BM5 Virus = assay: Antiviral activity against LP-BM5 virus; format: cell-based; conditions: Table 6, murine viruses
[9] = system: Herpes simplex virus type 1; assay: Inhibition of HSV type 1 infectivity in simian and human cell lines; format: cell-based, HSV-1
Influenza A = assay: Antiviral activity against influenza A; format: cell-based; conditions: Table 6, human viruses
Human Herpesvirus-6 = assay: Antiviral activity against human herpesvirus-6; format: cell-based

SMILES: CCCCCCCCCCCCCCCCCCCCCCO [n-docosanol]
- viral migration to the cell nucleus (HSV [1]): significantly inhibited; also recorded: substantially blocked
- reduction of HSV core protein antigen (HSV [1]; ELISA): more than 80%
- reduction of HSV envelope protein antigen (HSV [1]; ELISA): more than 80%
- reduction of number of infected cells expressing ICP-4 (HSV [1]; immunofluorescence): more than 80%
- average healing time based on patient ratings ([2]; 10% cream, placebo 4.5): 5.6 days
- difference in mean time to healing versus placebo ([2]; p=0.2703): no statistically significant difference
- inhibition of acyclovir-resistant HSV-2 mutant [3]: very clearly susceptible
- activity against poliovirus (poliovirus): no detectable activity
- effect on viral binding to receptors (HSV-specific receptors): does not interfere with binding of herpes virus; also recorded: no effect
- decrease of replication of infectious virions (HSV [4]): ≥ 99%
- susceptibility to antiviral activity: Varicella Zoster Virus (Varicella Zoster Virus): susceptible
- radioactivity in the soluble cytoplasmic fraction (Vero cells [5]; after 12 hours of exposure): the balance of radioactivity
- actual bioactive dose relative to the dose shown in FIGS. 7 and 9 (Vero cells [5]; cultures, from uptake studies): 1/1000
- reduction of uptake of n-docosanol by energy poisons (Vero cells [5]; sodium azide and 2-deoxyglucose, Vero cells): 90%
- activity at the highest dose compared with PFA (HIV-1; FIG. 13): comparable to that observed with the very potent antiviral compound, phosphonoformic acid (PFA)
- EC50 (HIV-1; Human immunodeficiency virus 1, PBMC, dose response of HIV-1, read-out: ED 50 (the source's name)): 6 to 9 mM
- susceptibility to antiviral activity: HIV-1 (HIV-1; Table 6, human viruses): susceptible
- inhibition of HIV-1 replication (HIV-1; n-docosanol/Pluronic, FIG. 13): dose-related inhibitory activity
- antiviral HIV activity in Tetronic (HIV-1; suspended in Tetronic): even higher levels of antiviral HIV activity
- fraction of total n-docosanol cell-associated (Vero cells [6]): less than 1%
- molecules per cell (Vero cells [6]): ~8×10^9 molecules per cell
- radioactive compound in cell membranes (Vero cells [6]): 75%
- radioactive compound in nuclear fractions (Vero cells [6]): less than 1%
- reversibility of cell association (Vero cells [6]): irreversible
- time of peak uptake per cell (Vero cells [6]): 6 to 12 h
- total uptake, Tetronic versus Pluronic suspension (Vero cells [6]): equivalent
- counts migrating in the region of phosphatidylcholine (Vero cells [7]): approximately 62%
- counts migrating in the region of phosphatidylethanolamine (Vero cells [7]): ~38%
- levels of metabolic conversion, Tetronic relative to Pluronic (Vero cells [7]): 3 fold
- metabolic conversion (Vero cells [7]): progressively metabolized to polar compounds
- effectiveness in inhibiting HSV-induced plaques, Vero relative to MDBK cells (HSV [8]): 3-4 fold
- susceptibility to antiviral activity: LP-BM5 Virus (LP-BM5 Virus): susceptible
- susceptibility to antiviral activity: Herpes Simplex - 1 ([9]; Table 6): susceptible
- inhibitory activity in vitro ([9]; suspension in Pluronic F-68): excellent inhibitory activity
- susceptibility to antiviral activity: Influenza A (Influenza A): susceptible
- inhibition of in vitro replication of human herpes virus 6 (Human Herpesvirus-6): inhibits in vitro replication
- susceptibility to antiviral activity: Human Herpesvirus-6 (Human Herpesvirus-6; Table 6, human viruses): susceptible

Reference: patent US5534554A, “Sucrose ester-C20 to C28 alcohol formulations” (priority 1994, dated 1996)
